According to ChEMBL document CHEMBL1201862, “PubChem BioAssay data set” (2004):
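Step 1: Grow cells in 96-well plates. Step 2: Expose to compound for 48 hours at 5 concentrations. Step 3: Interpolate endpoints linearly; if unreached, use highest concentration. Here, GI50 denotes the concentration required for 50% inhibition of growth.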 Active and inactive are the calls of the source. No stated cut-off is given here; in the data, active = GI50 up to about 1.1 µM and inactive = higher.

Tests used:
Test in all cases: NCI tumour cell line growth inhibition, 48 h
RXF 393 = system: RXF 393
HCC 2998 = system: HCC 2998
SN12C = system: SN12C
OVCAR-5 = system: OVCAR-5
HT-29 = system: HT-29
HOP-92 = system: HOP-92
CCRF-CEM = system: CCRF-CEM
PC-3 = system: PC-3
DU-145 = system: DU-145
IGROV-1 = system: IGROV-1
SF-268 = system: SF-268
U-251 = system: U-251
T47D = system: T47D
NCI-H460 = system: NCI-H460
RPMI-8226 = system: RPMI-8226
HCT-15 = system: HCT-15
M14 = system: M14
NCI-H522 = system: NCI-H522
MDA-MB-435 = system: MDA-MB-435

| SMILES | GI50 (RXF 393) | GI50 (HCC 2998) | GI50 (SN12C) | GI50 (OVCAR-5) | GI50 (HT-29) | GI50 (HOP-92) | GI50 (CCRF-CEM) | GI50 (PC-3) | GI50 (DU-145) | GI50 (IGROV-1) | GI50 (SF-268) | GI50 (U-251) | GI50 (T47D) | GI50 (NCI-H460) | GI50 (RPMI-8226) | GI50 (HCT-15) | GI50 (M14) | GI50 (NCI-H522) | GI50 (MDA-MB-435) |
| --- | --- | --- | --- | --- | --- | --- | --- | --- | --- | --- | --- | --- | --- | --- | --- | --- | --- | --- | --- |
| Clc1cccc(Cl)c1/C=N/C12CC3CC(CC(C3)C1)C2 | > 10 µM (inactive) | > 10 µM (inactive) | > 10 µM (inactive) | > 10 µM (inactive) | > 10 µM (inactive) | > 10 µM (inactive) | > 10 µM (inactive) | > 10 µM (inactive) | > 10 µM (inactive) | > 10 µM (inactive) | > 10 µM (inactive) | > 10 µM (inactive) | > 10 µM (inactive) | > 10 µM (inactive) | > 10 µM (inactive) | > 10 µM | > 10 µM (inactive) | > 10 µM (inactive) | > 10 µM (inactive) |
| COc1ccc2c(c1)CCN=C2c1ccccc1CCCCl | 22.6 µM (inactive) | 6.25 µM (inactive) | 6.93 µM (inactive) | 46.8 µM (inactive) | 13.6 µM (inactive) | 26.7 µM (inactive) | 41.4 µM (inactive) | 17 µM (inactive) | 36.5 µM (inactive) | 20.1 µM (inactive) | 22.2 µM (inactive) | 71.6 µM (inactive) | 10.8 µM (inactive) | 13.6 µM (inactive) | 1.84 µM (inactive) | 23.6 µM | 29.3 µM (inactive) | 11.5 µM (inactive) | 38.7 µM (inactive) |
| COc1cc2c(cc1O)C(c1cc(O)c(O)c(OC)c1)C(O)(C(=O)O)C(CO)C2O (stereo not given) | > 100 µM (inactive) | > 100 µM (inactive) | 16.4 µM (inactive) | > 100 µM (inactive) | > 100 µM (inactive) | > 100 µM (inactive) | 2.62 µM (inactive) | > 100 µM (inactive) | > 100 µM (inactive) | > 100 µM (inactive) | > 100 µM (inactive) | > 100 µM (inactive) | > 100 µM (inactive) | > 100 µM (inactive) | > 100 µM (inactive) | > 100 µM | > 100 µM (inactive) | > 100 µM (inactive) | 17.6 µM (inactive) |
| CCC(=O)c1cc(C(=O)C(=S)SC)cc(C(=O)C(=S)SC)c1 | > 100 µM (inactive) | > 100 µM (inactive) | > 100 µM (inactive) | > 100 µM (inactive) | > 100 µM (inactive) | > 59.7 µM (inactive) | 3.05 µM (inactive) | > 100 µM (inactive) | > 100 µM (inactive) | > 100 µM (inactive) | > 100 µM (inactive) | > 69.3 µM (inactive) | > 100 µM (inactive) | > 100 µM (inactive) | 99.3 µM (inactive) | > 60 µM | > 100 µM (inactive) | > 55.3 µM (inactive) | > 100 µM (inactive) |
| COC(=O)C(C)(NC(=O)C(CC(=O)OC(C)(C)C)NC(=O)OC(C)(C)C)c1ccccc1 (stereo not given) | > 100 µM (inactive) | > 100 µM (inactive) | > 100 µM (inactive) | > 100 µM (inactive) | > 100 µM (inactive) | 63 µM (inactive) | > 100 µM (inactive) | > 100 µM (inactive) | > 100 µM (inactive) | > 100 µM (inactive) | 7.19 µM (inactive) | > 100 µM (inactive) | 35.4 µM (inactive) | 85.7 µM (inactive) | 72.8 µM (inactive) | > 100 µM | > 100 µM (inactive) | > 100 µM (inactive) | > 100 µM (inactive) |
| c1ccc2c(c1)nnn2C1CCCCO1 (stereo not given) | > 100 µM (inactive) | > 100 µM (inactive) | > 100 µM (inactive) | > 100 µM (inactive) | > 100 µM (inactive) | > 100 µM (inactive) | > 100 µM (inactive) | > 100 µM (inactive) | > 100 µM (inactive) | > 100 µM (inactive) | > 100 µM (inactive) | > 100 µM (inactive) | > 100 µM (inactive) | > 100 µM (inactive) | > 100 µM (inactive) | > 100 µM | > 100 µM (inactive) | > 100 µM (inactive) | > 100 µM (inactive) |
| Cc1cc(N(CCC#N)CCC#N)ccc1C(=N/NC(=O)c1cc(Cl)ccc1O)/N=N/c1cccc([N+](=O)[O-])c1 | 22.2 µM (inactive) | 28.8 µM (inactive) | 28.3 µM (inactive) | 35 µM (inactive) | 26.7 µM (inactive) | 38.2 µM (inactive) | 5.68 µM (inactive) | 22.1 µM (inactive) | 27.2 µM (inactive) | 11.3 µM (inactive) | 18.7 µM (inactive) | 35.9 µM (inactive) | 19.4 µM (inactive) | 25 µM (inactive) | 12.4 µM (inactive) | 25.5 µM | 30.4 µM (inactive) | 17.3 µM (inactive) | 35.4 µM (inactive) |
| O=[N+]([O-])c1ccc2c(c1)C1=NN(c3ccccc3)C(c3ccccc3Br)C1CCC2 (stereo not given) | 14.4 µM (inactive) | 21.9 µM (inactive) | 24.6 µM (inactive) | > 50 µM (inactive) | 16.1 µM (inactive) | 14.6 µM (inactive) | 2.19 µM (inactive) | 31.2 µM (inactive) | 16.3 µM (inactive) | 27.5 µM (inactive) | 21.9 µM (inactive) | 25.3 µM (inactive) | 10.2 µM (inactive) | 22.6 µM (inactive) | 6.85 µM (inactive) | 13.3 µM | 23.2 µM (inactive) | 13.3 µM (inactive) | 15 µM (inactive) |
| C1=C2SSC3=CC=C(SSc4ccc(s4)SSC4=CC=C(SSC(=C1)S2)S4)S3 | > 100 µM (inactive) | > 100 µM (inactive) | > 100 µM (inactive) | > 100 µM (inactive) | > 100 µM (inactive) | > 100 µM (inactive) | > 100 µM (inactive) | > 100 µM (inactive) | > 100 µM (inactive) | > 100 µM (inactive) | > 100 µM (inactive) | > 100 µM (inactive) | > 100 µM (inactive) | > 100 µM (inactive) | > 100 µM (inactive) | > 100 µM | > 100 µM (inactive) | > 100 µM (inactive) | > 100 µM (inactive) |
| Cc1ccc(OC2CC(n3cnc4c(=O)[nH]c(Br)nc43)OC2Oc2ccc(C)cc2)cc1 (stereo not given) | 22.5 µM (inactive) | 24 µM (inactive) | 26.2 µM (inactive) | 21.4 µM (inactive) | 28.6 µM (inactive) | 22.4 µM (inactive) | 23.1 µM (inactive) | 22.6 µM (inactive) | 24.7 µM (inactive) | 24.4 µM (inactive) | 22.6 µM (inactive) | 29.1 µM (inactive) | 24.8 µM (inactive) | 20.6 µM (inactive) | 34.4 µM (inactive) | 30.3 µM | 24.9 µM (inactive) | 21.2 µM (inactive) | 24 µM (inactive) |
| C/C(=N\Nc1nc2cc(F)ccc2s1)c1ccccn1 | 1.26 µM (inactive) | 1.92 µM (inactive) | 0.0101 µM (active) | 0.716 µM (active) | < 0.01 µM (active) | 0.0352 µM (active) | < 0.01 µM (active) | 0.0395 µM (active) | 0.344 µM (active) | 0.0198 µM (active) | 0.0301 µM (active) | 0.0402 µM (active) | < 0.01 µM (active) | 0.0412 µM (active) | 0.136 µM (active) | < 0.022 µM | 0.0171 µM (active) | < 0.01 µM (active) | 0.303 µM (active) |
| COc1ccccc1NC(=S)N/N=C(/c1ccccc1)c1ccccn1 | 1.07 µM (active) | 5.97 µM (inactive) | 0.685 µM (active) | 0.0635 µM (active) | 0.0101 µM (active) | 0.522 µM (active) | 0.0316 µM (active) | < 0.0142 µM (active) | 0.325 µM (active) | 0.0225 µM (active) | 0.144 µM (active) | 0.0635 µM (active) | < 0.0426 µM (active) | 0.158 µM (active) | 0.0299 µM (active) | 0.045 µM | < 0.0249 µM (active) | 0.499 µM (active) | 0.356 µM (active) |
| N/N=C(/CC(O)(C(F)(F)F)C(F)(F)F)c1ccccc1 | > 10 µM (inactive) | > 10 µM (inactive) | > 10 µM (inactive) | > 10 µM (inactive) | > 10 µM (inactive) | > 10 µM (inactive) | > 10 µM (inactive) | > 10 µM (inactive) | > 10 µM (inactive) | > 10 µM (inactive) | > 10 µM (inactive) | > 10 µM (inactive) | > 10 µM (inactive) | > 10 µM (inactive) | > 10 µM (inactive) | > 10 µM | > 10 µM (inactive) | > 10 µM (inactive) | > 10 µM (inactive) |
| CN(C)c1ccc(/C=C(\NC(=O)c2ccccc2)C2=NC(CCC(=O)O)C(=O)O2)cc1 (stereo not given) | > 50 µM (inactive) | > 50 µM (inactive) | > 50 µM (inactive) | > 50 µM (inactive) | > 50 µM (inactive) | > 50 µM (inactive) | > 43.9 µM (inactive) | > 50 µM (inactive) | > 50 µM (inactive) | > 50 µM (inactive) | > 50 µM (inactive) | > 47.2 µM (inactive) | > 50 µM (inactive) | > 50 µM (inactive) | 35.9 µM (inactive) | > 50 µM | > 50 µM (inactive) | 17.1 µM (inactive) | > 50 µM (inactive) |
| Cc1cc(C)nc(NS(=O)(=O)c2ccc(NC(=O)c3ccc4nc5ccccc5c(Nc5ccc(S(=O)(=O)Nc6nc(C)cc(C)n6)cc5)c4c3)cc2)n1 | 34.9 µM (inactive) | 61.8 µM (inactive) | 46.5 µM (inactive) | > 100 µM (inactive) | 64.9 µM (inactive) | 23 µM (inactive) | 36.6 µM (inactive) | 59.7 µM (inactive) | > 100 µM (inactive) | 52.5 µM (inactive) | 58.6 µM (inactive) | 35.3 µM (inactive) | 46.7 µM (inactive) | 88.5 µM (inactive) | 37.2 µM (inactive) | > 100 µM | > 100 µM (inactive) | 25.5 µM (inactive) | > 100 µM (inactive) |
